Laboratory results taken from US20100056516A1 (priority 2006, published 2010).
Where a name gives a salt, the structure may show the parent alone.

Key:
HXB2 virus = assay: microbe, parasite or virus in culture; type: cell-based, HIV; conditions: Human immunodeficiency virus 1, HXB2, HeLaP4-2, read-out: antiviral IC50 (SCIA-B)
Procedure: An assay for measuring the inhibition of acute HIV infection with HeLa P4-2 cells in a single cycle infectivity assay (SCIA-A) was conducted in accordance with Joyce, J. G., et al., J. Biol. Chem., 2002, 277, 45811, Hazuda, D. J. et al., Science, 2000, 287, 646, and Kimpton, J. et al, J. Virol. 1992, 66, 2232. Infectious virus was produced by transfecting 293T cells with HIV proviral DNA in which the integrase gene was derived from a IIIB isolate and the remainder of the HIV genome was derived from the NL4-3 isolate.
This assay B for measuring the inhibition of acute HIV infection with HeLa P4-2 cells in a single cycle infectivity assay (SCIA-B) is essentially the same as Assay A described above, except that HXB2 virus is employed instead of the IIIb isolate.

HIV integrase = HIV integrase (Human immunodeficiency virus type 1 group M subtype B, UniProt P04585); assay: integrase strand transfer assay (STA); type: biochemical; conditions: integrase strand transfer; read-out: IC50 in the STA assay

Compound | IC50 (HXB2 virus) [µM] | IC50 (HIV integrase) [µM]
O=C(Nc1ccccc1OCc1ccccn1)c1c(O)c2cccnc2n(O)c1=O [Example 15, 1,4-Dihydroxy-2-oxo-N-[2-(pyridin-2-ylmethoxy)phenyl]-1,2-dihydro-1,8-naphthyridine-3-carboxamide, hydrochloric acid salt] | > 100 | < 50
CN(Cc1cccc(Cn2cncn2)c1)c1cc(=O)n(O)c2ncccc12 [Example 116] | < 100 | < 50
O=c1cc(N2Cc3ccc(-c4ccccc4)cc3C2)c2cccnc2n1O [Example 256, 1-hydroxy-4-(5-phenyl-1,3-dihydro-2H-isoindol-2-yl)-1,8-naphthyridin-2(1H)-one] | < 100 | < 50
CCOC(=O)c1c(N)c2cc(-c3ccccc3)cnc2n(O)c1=O [Example 98, Ethyl 4-amino-1-hydroxy-2-oxo-6-phenyl-1,2-dihydro-1,8-naphthyridine-3-carboxylate] | < 100 | < 50
O=C(NCc1ccccc1)c1ccc2c(c1)CCN(c1cc(=O)n(O)c3ncccc13)C2 [Example 261, 4-[6-(benzylaminocarbonyl)-3,4-dihydroisoquinolin-2(1H)-yl]-1-hydroxy-1,8-naphthyridin-2(1H)-one] | < 100 | < 50
O=c1cc(-c2ccc(-c3ccn[nH]3)cc2)c2cccnc2n1O [Example 188, 1-hydroxy-4-[4-(1H-pyrazol-5-yl)phenyl]-1,8-naphthyridin-2(1H)-one] | < 100 | < 50
O=c1c(-c2ccccc2Cl)c(O)c2cccnc2n1O [Example 35, 3-(2-Chlorophenyl)-1,4-dihydroxy-1,8-naphthyridin-2(1H)-one] | < 100 | < 50
O=c1cc(NCC(c2ccccc2)N2CCOCC2)c2cccnc2n1O (stereo not shown) [Example 110, 1-Hydroxy-4-[(2-morpholin-4-yl-2-phenylethyl)amino]-1,8-naphthyridin-2(1H)-one] | < 100 | < 50
COC(=O)c1cnc2c(c1)c(O)c(C(=O)NCc1ccccc1)c(=O)n2O [Example 91, Methyl 6-[(benzylamino)carbonyl]-5,8-dihydroxy-7-oxo-7,8-dihydro-1,8-naphthyridine-3-carboxylate] | < 100 | < 50
O=c1cc(N2CCCC(CN3CCOCC3)C2)c2cccnc2n1O (stereo not shown) [Example 144, 1-hydroxy-4-[3-(4-morpholinylmethyl)-1-piperidinyl]-1,8-naphthyridin-2(1H-one)] | < 100 | < 50
Nc1ccc(-c2cccc(Cc3cc(=O)n(O)c4ncccc34)c2)cc1 [Example 234, 4-[(4′-aminobiphenyl-3-yl)methyl]-1-hydroxy-1,8-naphthyridin-2(1H)-one] | < 100 | < 50
Nc1cccc(-c2cccc(Cc3cc(=O)n(O)c4ncccc34)c2)c1 [Example 233, 4-[(3′-aminobiphenyl-3-yl)methyl]-1-hydroxy-1,8-naphthyridin-2(1H)-one] | < 100 | < 50
CC(=O)Nc1cc(=O)n(O)c2ncccc12 [Example 100, N-(1-Hydroxy-2-oxo-1,2-dihydro-1,8-naphthyridin-4-yl)acetamide] | < 100 | < 50
O=c1cc(NC(CN2CCOCC2)c2ccccc2)c2cccnc2n1O (stereo not shown) [Example 107, 1-Hydroxy-4-[(2-morpholin-4-yl-1-phenylethyl)amino]-1,8-naphthyridin-2(1H)-one] | < 100 | < 50
CCOC(=O)c1c(-c2ccc(-c3ccc(CN)cc3)cc2)c2cccnc2n(O)c1=O [Example 243, Ethyl 4-[4′-(aminomethyl)biphenyl-4-yl]-1-hydroxy-2-oxo-1,2-dihydro-1,8-naphthyridine-3-carboxylate] | < 100 | < 50
CCOC(=O)c1c(N2CCc3ccc(-c4cccc(F)c4)cc3C2)c2cccnc2n(O)c1=O [Example 259, ethyl 4-[7-(3-fluorophenyl)-3,4-dihydroisoquinolin-2(1H)-yl]-1-hydroxy-2-oxo-1,2-dihydro-1,8-naphthyridine-3-carboxylate] | < 100 | > 50
O=c1c2ccccc2c2cccnc2n1O [Example 265, 5-Hydroxybenzo[c]-1,8-naphthyridin-6(5B)-one] | < 100 | < 50
COc1ccc(NC(=O)c2c(O)c3cccnc3n(O)c2=O)cc1 [Example 13, 1,4-Dihydroxy-N-(4-methoxyphenyl)-2-oxo-1,2-dihydro-1,8-naphthyridine-3-carboxamide] | < 100 | < 50
CCc1cnc2c(c1)c(O)c(-c1ccccc1)c(=O)n2O [Example 73, 6-Ethyl-1,4-dihydroxy-3-phenyl-1,8-naphthyridin-2(1H)-one] | < 100 | < 50

Compound | IC50 (HXB2 virus) [µM] | IC50 (HIV integrase) [µM]
N#Cc1cccc(-c2cccc(-c3cc(=O)n(O)c4ncccc34)c2)c1 [Example 202, 3′-(1-hydroxy-2-oxo-1,2-dihydro-1,8-naphthyridin-4-yl)biphenyl-3-carbonitrile] | < 100 | < 50
O=c1cc(Nc2ccccc2N2CCCCC2)c2cccnc2n1O [Example 139, 1-hydroxy-4-{[2-(1-piperidinyl)pheny]amino}-1,8-naphthyridin-2(1H-one)] | < 100 | < 50
O=c1cc(-c2ccc(NCCN3CCOCC3)nc2)c2cccnc2n1O [Example 200, 1-hydroxy-4-{6-[(2-morpholin-4-ylethyl)amino]pyridin-3-yl}-1,8-naphthyridin-2(1H)-one] | < 100 | < 50
COc1cccc(CNc2cc(=O)n(O)c3ncccc23)c1 [Example 145, 1-hydroxy-4-[(3-methoxybenzyl)amino]-1,8-naphthyridin-2(1H-one)] | < 100 | < 50
O=c1c(-c2ccccc2)c(O)c2cc(S(=O)(=O)Nc3ccccc3)cnc2n1O [Example 95, 5,8-Dihydroxy-7-oxo-N,6-diphenyl-7,8-dihydro-1,8-naphthyridine-3-sulfonamide] | < 100 | < 50
O=c1c(-c2ccccc2)c(O)c2cc(S(=O)(=O)NCc3ccccc3)cnc2n1O [Example 96, N-benzyl-5,8-dihydroxy-7-oxo-6-phenyl-7,8-dihydro-1,8-naphthyridine-3-sulfonamide] | < 100 | < 50
O=c1c(-c2c(F)cccc2F)c(O)c2cccnc2n1O [Example 29, 3-(2,6-Difluorophenyl)-1,4-dihydroxy-1,8-naphthyridin-2(1H)-one] | < 100 | < 50
O=c1c(-c2ccccc2)c(O)c2cccnc2n1O [Example 30, 1,4-Dihydroxy-3-phenyl-1,8-naphthyridin-2-(1H)-one] | < 100 | < 50
CCOC(=O)c1c(-c2cccc(-c3ccc(CN)cc3)c2)c2cc(-c3ccccc3OC)cnc2n(O)c1=O [Example 248, ethyl 4-[4′-(aminomethyl)biphenyl-3-yl]-1-hydroxy-6-(2-methoxyphenyl)-2-oxo-1,2-dihydro-1,8-naphthyridine-3-carboxylate] | < 100 | < 50
O=C(NCC(F)(F)F)c1c(O)c2cccnc2n(O)c1=O [Example 22, 1,4-Dihydroxy-2-oxo-N-(2,2,2-trifluoroethyl)-1,2-dihydro-1,8-naphthyridine-3-carboxamide] | < 100 | < 50
NCc1cccc(-c2cccc(-c3cc(=O)n(O)c4ncccc34)c2)c1 [Example 204, 4-[3′-(aminomethyl)biphenyl-3-yl]-1-hydroxy-1,8-naphthyridin-2(1H)-one] | < 100 | < 50
O=c1cc(NCCN2CCOCC2)c2cccnc2n1O [Example 161] | < 100 | < 50
CC(NC(=O)c1c(O)c2cccnc2n(O)c1=O)c1ccccc1 (stereo not shown) [Example 23, 1,4-Dihydroxy-2-oxo-N-(1-phenylethyl)-1,2-dihydro-1,8-naphthyridine-3-carboxamide] | < 100 | < 50
O=c1cc(-c2cccc(CN3CCN(Cc4ccccc4)CC3)c2)c2cccnc2n1O [Example 206, 4-{3-[(4-benzyl-1-piperazinyl)methyl]phenyl}-1-hydroxy-1,8-naphthyridin-2(1H-one)] | < 100 | < 50
CN(Cc1ccccc1)c1cc(=O)n(O)c2ncccc12 [Example 130, 4-[benzyl(methyl)amino]-1-hydroxy-1,8-naphthyridin-2(1H)-one] | < 100 | < 50
CCOC(=O)c1c(O)c2cc(Oc3ccc(N(CC)CC)cc3)cnc2n(O)c1=O [Example 90, Ethyl 6-[4-(diethylamino)phenoxy]-1,4-dihydroxy-2-oxo-1,2-dihydro-1,8-naphthyridine-3-carboxylate] | < 100 | < 50
COC(=O)c1ccc2c(c1)CN(c1cc(=O)n(O)c3ncccc13)CC2 [Example 122, 4-[7-(methoxycarbonyl)-3,4-dihydroisoquinolin-2(1H)-yl]-1-hydroxy-1,8-naphthyridin-2(1H)-one] | < 100 | < 50
O=c1cc(-c2ccn[nH]2)c2cccnc2n1O [Example 198, 1-hydroxy-4-(1H-pyrazol-5-yl)-1,8-naphthyridin-2(1H)-one] | < 100 | < 50
O=c1cc(N2CCC(N3CCOCC3)CC2)c2cccnc2n1O [Example 138, 1-hydroxy-4-[4-(4-morpholinyl)-1-piperidinyl]-1,8-naphthyridin-2(1H-one)] | < 100 | < 50
